Laboratory results taken from patent publication US20220062240A1, “METHODS OF TREATING CANCER USING A CLK INHIBITOR” (BioSplice Therapeutics, Inc., priority 2018, published 2022).
Like-named read-outs stand apart in the source and are kept apart here. One block for each compound: values may come before it.

Tests used:
[1] = tested on: prostate cancer (5 cell lines); assay: CellTiter-Glo Viability Assay, prostate cancer; type: cell-based; details: Homo sapiens
[2] = tested on: liver cancer (3 cell lines); assay: CellTiter-Glo Viability Assay, liver cancer; type: cell-based; details: Homo sapiens, inhibition of cancer cell proliferation
[3] = tested on: haematopoietic & lymphoid tumors (13 cell lines); assay: CellTiter-Glo Viability Assay, haematopoietic & lymphoid tumors; type: cell-based; details: Homo sapiens, inhibition of cancer cell proliferation
[4] = tested on: ovarian cancer (4 cell lines); assay: CellTiter-Glo Viability Assay, ovarian cancer; type: cell-based; details: Homo sapiens, inhibition of cancer cell proliferation
ZR-75-1 = assay: CellTiter-Glo Viability Assay, breast cancer; type: cell-based; details: Homo sapiens, 96 h; ZR-75-1, breast cancer, four days; read-out: EC50
BT-549 = assay: CellTiter-Glo Viability Assay, breast cancer; type: cell-based; details: Homo sapiens, 96 h; BT-549, breast cancer, four days; read-out: EC50
T47D = assay: CellTiter-Glo Viability Assay, breast cancer; type: cell-based; details: Homo sapiens, 96 h, breast cancer, four days, read-out: EC50
MCF7 = assay: CellTiter-Glo Viability Assay, breast cancer; type: cell-based; details: Homo sapiens, 96 h; MCF7, breast cancer, four days; read-out: EC50
MDA-MB-231-Luc = assay: CellTiter-Glo Viability Assay, breast cancer; type: cell-based; details: Homo sapiens, 96 h; MDA-MB-231-Luc, breast cancer, four days; read-out: EC50
CAMA1 = assay: CellTiter-Glo Viability Assay, breast cancer; type: cell-based; details: Homo sapiens, CAMA-1, 96 h; CAMA1, breast cancer, four days; read-out: EC50
DU4475 = assay: CellTiter-Glo Viability Assay, breast cancer; type: cell-based; details: Homo sapiens, DU-4475, 96 h; DU4475, breast cancer, four days; read-out: EC50
HCC1599 = assay: CellTiter-Glo Viability Assay, breast cancer; type: cell-based; details: Homo sapiens, 96 h; HCC1599, breast cancer, four days; read-out: EC50
all 50 cell lines = assay: CellTiter-Glo Viability Assay, average across all cell lines; type: cell-based; details: Homo sapiens; across all 50 cell lines; read-out: average EC50 for inhibition of cancer cell proliferation
Summary of the method: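 Luminescent ATP read-out (CellTiter-Glo) after a 4-day compound exposure at 37° C served as the viability measure. Cells were seeded at 300-3,000/well, compound wells run in duplicate against DMSO controls, and EC50 values came from fitted dose-response curves.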

[5] = tested on: lung cancer (4 cell lines); assay: CellTiter-Glo Viability Assay, lung cancer; type: cell-based; details: Homo sapiens, inhibition of cancer cell proliferation
[6] = tested on: colorectal cancer (6 cell lines); assay: CellTiter-Glo Viability Assay, colorectal cancer; type: cell-based; details: Homo sapiens, inhibition of cancer cell proliferation
CLK2 = biological target: T1, CLK2 (Homo sapiens, UniProt P49760); assay: CLK2 kinase activity assay (Z-lyte, Ser/Thr 6 peptide); type: biochemical; details: recombinant CLK2 kinase, ATP 60 μM; read-out: EC50
T1 construct: purchased Thermo Fisher (Life Technologies), Z'-LYTE Kinase Assay Kits
Protocol: All reactions were performed in duplicate.

CLK3 = CLK3 (Homo sapiens, UniProt P49761); assay: CLK3 kinase activity assay (Z-lyte, Ser/Thr 18 peptide)
Protocol: Each compound was dissolved in DMSO as a 10 mM stock and used to prepare compound source plates.
This is a non-radioactive assay using fluorescence resonance energy transfer (FRET) between coumarin and fluorescein to detect kinase activity which is represented as a ratio of coumarin emission/fluorescein emission.
All reactions were performed in duplicate. Unphosphorylated (“0% Control”) and phosphorylated (“100% control”) forms of Ser/Thr 18 served as control reactions. Additionally, an 11-point dose-response curve of Staurosporine (1 uM top) was run to serve as a positive compound control.
After incubation, Development Reagent A was diluted in Development Buffer then added to the reaction and allowed to further incubate for one hour at room temperature.
Dose-response curves were generated and inhibitory concentration (IC50) values were calculated using non-linear regression curve fit in the Dotmatics' Studies Software (Bishops Stortford, UK).
Compounds were acoustically transferred on 1536-well plates (Echo 550, LabCyte) instrument. Kinase, peptide, and ATP reagents from the Z′-LYTE Kinase Assay Kits (Thermo Fisher) were dispensed onto the compound plates using an EL406 liquid dispenser (BioTek). Plates were incubated in the dark at room temperature for 1 hr. Development reagent was added to the plates and then incubated in the dark at room temperature for 1 hr. Fluorescence signal form the plate was then read using an EnVision Multilabel Plate Reader (Perkin Elmer).

[7] = tested on: pancreatic cancer (8 cell lines); assay: CellTiter-Glo Viability Assay, pancreatic cancer; type: cell-based; details: Homo sapiens, inhibition of cancer cell proliferation
[8] = DU-145, read-out: Prostate cancer EC50 Du-145
[9] = PC-3, PC3 cell line, inhibition of cancer cell proliferation, read-out: Prostate cancer EC50 PC3
[10] = 22Rv1 cell line, inhibition of cancer cell proliferation, read-out: Prostate cancer EC50 22Rv1
[11] = LNCap clone FGC cell line, inhibition of cancer cell proliferation, read-out: Prostate cancer EC50 LNCap clone FGC
[12] = VCaP (Sigma) cell line, inhibition of cancer cell proliferation, read-out: Prostate cancer EC50 VCaP (Sigma)
[13] = SNU-398, SNU398 cell line, read-out: Liver cancer, EC50 SNU398
[14] = HEPG2 cell line, read-out: Liver cancer, EC50 HEPG2
[15] = PLC/PRF/5 cell line, read-out: Liver cancer, EC50 PLC/PRF/5
[16] = DND41, DND-41 cell line, read-out: Haematopoietic & Lymphoid tumors, EC50 (μM) DND-41
[17] = MV4-11, MV-4-11 cell line, read-out: Haematopoietic & Lymphoid tumors, EC50 (μM) MV-4-11
[18] = Rec1, REC-1 cell line, read-out: Haematopoietic & Lymphoid tumors, EC50 (μM) REC-1
[19] = SU-DHL-4, SUDHL4 cell line, read-out: Haematopoietic & Lymphoid tumors, EC50 (μM) SUDHL4
[20] = HL-60 cell line, read-out: Haematopoietic & Lymphoid tumors, EC50 (μM) HL-60
[21] = JM1 cell line, read-out: Haematopoietic & Lymphoid tumors, EC50 (μM) JM1
[22] = JURKAT, Clone E6-1 cell line, read-out: Haematopoietic & Lymphoid tumors, EC50 (μM) JURKAT, Clone E6-1
[23] = JeKo-1 cell line, read-out: Haematopoietic & Lymphoid tumors, EC50 (μM) JeKo-1
[24] = KASUMI-1 cell line, read-out: Haematopoietic & Lymphoid tumors, EC50 (μM) KASUMI-1
[25] = Loucy cell line, read-out: Haematopoietic & Lymphoid tumors, EC50 (μM) Loucy
[26] = MOLT-4 cell line, read-out: Haematopoietic & Lymphoid tumors, EC50 (μM) MOLT-4
[27] = TF-1 cell line, read-out: Haematopoietic & Lymphoid tumors, EC50 (μM) TF-1
[28] = TOLEDO cell line, read-out: Haematopoietic & Lymphoid tumors, EC50 (μM) TOLEDO
[29] = PA-1, PA1 cell line, read-out: Ovarian cancer, EC50 (μM) PA1
[30] = TOV112D, TOV-112D cell line, read-out: Ovarian cancer, EC50 (μM) TOV-112D
[31] = OV-90 cell line, read-out: Ovarian cancer, EC50 (μM) OV-90
[32] = OVCAR-3 cell line, read-out: Ovarian cancer, EC50 (μM) OVCAR-3
[33] = A-427, A427 cell line, read-out: Lung cancer, EC50 (μM) A427
[34] = HCC78, HCC-78 cell line, read-out: Lung cancer, EC50 (μM) HCC-78
[35] = NCI-H460 cell line, read-out: Lung cancer, EC50 (μM) NCI-H460
[36] = NCI-H522 cell line, read-out: Lung cancer, EC50 (μM) NCI-H522
[37] = HCT-116, HCT116 cell line, read-out: Colorectal cancer, EC50 (μM) HCT116
[38] = HT-29, HT29 cell line, read-out: Colorectal cancer, EC50 (μM) HT29
[39] = SW-620, SW620 cell line, read-out: Colorectal cancer, EC50 (μM) SW620
[40] = DLD-1 cell line, read-out: Colorectal cancer, EC50 (μM) DLD-1
[41] = SW48 cell line, read-out: Colorectal cancer, EC50 (μM) SW48
[42] = BXPC-3, BxPC3 cell line, read-out: Pancreatic cancer, EC50 BxPC3
[43] = CAPAN-1, Capan1 cell line, read-out: Pancreatic cancer, EC50 Capan1
[44] = Capan-2, Capan2 cell line, read-out: Pancreatic cancer, EC50 Capan2
[45] = MIA PaCa-2 cell line, read-out: Pancreatic cancer, EC50 MIA PaCa-2
[46] = PANC 05.04 cell line, read-out: Pancreatic cancer, EC50 PANC 05.04
[47] = PANC-1 cell line, read-out: Pancreatic cancer, EC50 PANC-1
[48] = UPAFII cell line, read-out: Pancreatic cancer, EC50 UPAFII

CLK3, sequence (P49761 whole entry): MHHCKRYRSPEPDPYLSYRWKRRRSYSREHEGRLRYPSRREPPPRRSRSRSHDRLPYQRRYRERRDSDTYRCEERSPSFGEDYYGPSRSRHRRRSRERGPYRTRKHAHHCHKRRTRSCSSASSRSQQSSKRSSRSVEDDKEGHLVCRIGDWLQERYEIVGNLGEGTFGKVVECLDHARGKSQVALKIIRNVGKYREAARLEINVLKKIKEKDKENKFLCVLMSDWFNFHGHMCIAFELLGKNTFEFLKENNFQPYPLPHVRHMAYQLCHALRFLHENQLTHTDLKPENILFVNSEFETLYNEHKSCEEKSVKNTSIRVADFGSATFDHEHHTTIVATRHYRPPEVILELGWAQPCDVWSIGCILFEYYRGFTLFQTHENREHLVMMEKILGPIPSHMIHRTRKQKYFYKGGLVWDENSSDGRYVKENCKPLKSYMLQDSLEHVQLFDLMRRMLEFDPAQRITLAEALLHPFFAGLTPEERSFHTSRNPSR
T1 sequence (P49760 whole entry): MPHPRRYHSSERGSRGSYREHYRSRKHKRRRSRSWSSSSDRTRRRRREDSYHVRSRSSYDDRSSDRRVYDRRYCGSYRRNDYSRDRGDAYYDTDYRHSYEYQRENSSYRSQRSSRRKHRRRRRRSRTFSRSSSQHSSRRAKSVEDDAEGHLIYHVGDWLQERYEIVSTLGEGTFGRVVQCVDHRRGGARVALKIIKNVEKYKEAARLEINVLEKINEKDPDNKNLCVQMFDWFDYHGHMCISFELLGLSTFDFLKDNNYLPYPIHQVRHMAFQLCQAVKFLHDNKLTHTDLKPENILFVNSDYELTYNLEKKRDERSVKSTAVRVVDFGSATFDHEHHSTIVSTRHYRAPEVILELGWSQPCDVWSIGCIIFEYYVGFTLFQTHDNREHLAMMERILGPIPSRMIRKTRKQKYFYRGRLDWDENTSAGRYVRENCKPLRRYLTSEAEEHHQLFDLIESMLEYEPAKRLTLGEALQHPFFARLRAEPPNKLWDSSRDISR

EC50 [1, 8]: > 10 µM
EC50 [1, 9]: 7.87 µM
EC50 [1, 10]: 0.859 µM
EC50 [1, 11]: > 10 µM
EC50 [1, 12]: > 10 µM
EC50 [2, 13]: 0.232 µM
EC50 [2, 14]: > 10 µM
EC50 [2, 15]: > 10 µM
EC50 [3, 16]: 0.853 µM
EC50 [3, 17]: 0.406 µM
EC50 [3, 18]: 0.527 µM
EC50 [3, 19]: 0.501 µM
EC50 [3, 20]: 9.46 µM
EC50 [3, 21]: 0.195 µM
EC50 [3, 22]: 2.79 µM
EC50 [3, 23]: 0.713 µM
EC50 [3, 24]: 5.07 µM
EC50 [3, 25]: 1.28 µM
EC50 [3, 26]: 7.26 µM
EC50 [3, 27]: 7.92 µM
EC50 [3, 28]: 0.302 µM
EC50 [4, 29]: 8.98 µM
EC50 [4, 30]: > 10 µM
EC50 [4, 31]: > 10 µM
EC50 [4, 32]: 3.22 µM
EC50 (ZR-75-1): > 10 µM
EC50 (BT-549): > 10 µM
EC50 (T47D): > 10 µM
EC50 (MCF7): > 10 µM
EC50 (MDA-MB-231-Luc): > 10 µM
EC50 (CAMA1): > 10 µM
EC50 (DU4475): 7.19 µM
EC50 (HCC1599): 0.407 µM
EC50 [5, 33]: > 10 µM
EC50 [5, 34]: > 10 µM
EC50 [5, 35]: > 10 µM
EC50 [5, 36]: 5.83 µM
EC50 [6, 37]: 3.45 µM
EC50 [6, 38]: > 10 µM
EC50 [6, 39]: 2.34 µM
EC50 [6, 40]: 1.64 µM
EC50 [6, 41]: 3.77 µM
EC50 (CLK2): 0.0014 µM
EC50 (CLK3): 0.031 µM
EC50 [7, 42]: > 10 µM
EC50 [7, 43]: > 10 µM
EC50 [7, 44]: > 10 µM
EC50 [7, 45]: 3.52 µM
EC50 [7, 46]: > 10 µM
EC50 [7, 47]: > 10 µM
EC50 [7, 48]: 8.92 µM
Structure (SMILES): CN(C)Cc1cncc(-c2ccc3[nH]nc(-c4cc5c(-c6ccoc6)ccnc5[nH]4)c3c2)c1 [Compound 51]
EC50 (all 50 cell lines): 6.51 µM

EC50 [1, 8]: > 10 µM
EC50 [1, 9]: 3.37 µM
EC50 [1, 10]: 7.9 µM
EC50 [1, 11]: > 10 µM
EC50 [1, 12]: > 10 µM
EC50 [2, 13]: 0.16 µM
EC50 [2, 14]: > 10 µM
EC50 [2, 15]: > 10 µM
EC50 [3, 16]: 0.959 µM
EC50 [3, 17]: 0.121 µM
EC50 [3, 18]: 5.51 µM
EC50 [3, 19]: 0.365 µM
EC50 [3, 20]: 3.21 µM
EC50 [3, 21]: 0.394 µM
EC50 [3, 22]: > 10 µM
EC50 [3, 23]: 0.39 µM
EC50 [3, 24]: 0.767 µM
EC50 [3, 25]: 0.485 µM
EC50 [3, 26]: > 10 µM
EC50 [3, 27]: > 10 µM
EC50 [3, 28]: 0.402 µM
EC50 [4, 29]: 0.767 µM
EC50 [4, 30]: 1.45 µM
EC50 [4, 31]: > 10 µM
EC50 [4, 32]: 0.436 µM
EC50 (ZR-75-1): 6.91 µM
EC50 (BT-549): 0.328 µM
EC50 (T47D): 3.22 µM
EC50 (MCF7): > 10 µM
EC50 (MDA-MB-231-Luc): 6.63 µM
EC50 (CAMA1): 1.53 µM
EC50 (DU4475): 0.042 µM
EC50 (HCC1599): 0.248 µM
EC50 [5, 33]: 1.31 µM
EC50 [5, 34]: > 10 µM
EC50 [5, 35]: > 10 µM
EC50 [5, 36]: 0.224 µM
EC50 [6, 37]: 3.81 µM
EC50 [6, 38]: > 10 µM
EC50 [6, 39]: 1.09 µM
EC50 [6, 40]: 9.99 µM
EC50 [6, 41]: 5.05 µM
EC50 ([6]; SW480 cell line, read-out: Colorectal cancer, EC50 (μM) SW480): 1.38 µM
EC50 (CLK2): 0.0033 µM
EC50 (CLK3): 0.0163 µM
EC50 [7, 42]: > 10 µM
EC50 [7, 43]: 3.62 µM
EC50 [7, 44]: > 10 µM
EC50 [7, 45]: 0.697 µM
EC50 [7, 46]: > 10 µM
EC50 [7, 47]: > 10 µM
EC50 [7, 48]: > 10 µM
Structure (SMILES): O=C1COc2cccc(c2)-c2cncc3[nH]c(nc23)-c2n[nH]c3ccc(cc23)-c2cncc(c2)N1 [Compound 56]
EC50 (all 50 cell lines): 5.05 µM
